Patent US11098010B2 (priority 2017, dated 2021)
Structures can show the parent of a compound that is named as a salt.

What follows are molecules tested on HBV rcDNA in HepDE19 cells (assay: HepDE19 assay with bDNA quantitation of HBV rcDNA). Conditions: HepDE19 cells, inhibition of rcDNA formation, 7 day incubation, top concentration 25 μM; read-out: DE-19 bDNA EC50.
Assay type: cell-based, hepatitis B virus (HBV)

SMILES	EC50 [µM]
O=C(NC1CSc2c(C(=O)Nc3ccc(F)c(F)c3)ccc(F)c21)OCc1ccccn1 (stereo not shown) [Compound 63, O-Pyridin-2-ylmethyl, N-(7-((3,4-difluorophenyl)carbamoyl)-4-fluoro-2,3-dihydrobenzo[b]thiophen-3-yl) carbamate]	> 25
O=C(NC1CSc2c(C(=O)Nc3ccc(F)c(F)c3)ccc(F)c21)OCc1ccccn1 (stereo not shown) [Compound 64, O-Pyridin-2-ylmethyl, N-(7-((3,4-difluorophenyl)carbamoyl)-4-fluoro-2,3-dihydrobenzo[b]thiophen-3-yl) carbamate]	0.84
O=C(NC1CSc2c(C(=O)Nc3ccc(F)c(Cl)c3)ccc(F)c21)OCc1ccccn1 (stereo not shown) [Compound 65, O-Pyridin-2-ylmethyl, N-(7-((3-chloro-4-fluorophenyl)carbamoyl)-4-fluoro-2,3-dihydrobenzo[b]thiophen-3-yl) carbamate]	> 25
O=C(NC1CSc2c(C(=O)Nc3ccc(F)c(Cl)c3)ccc(F)c21)OCc1ccccn1 (stereo not shown) [Compound 66, O-Pyridin-2-ylmethyl, N-(7-((3-chloro-4-fluorophenyl)carbamoyl)-4-fluoro-2,3-dihydrobenzo[b]thiophen-3-yl) carbamate]	0.44
O=C(N[C@H]1CCc2c(C(=O)Nc3ccc(F)c(Cl)c3)ccc(F)c21)OCCF [Compound 76, O-2-Fluoroethyl, N—(S)-(4-((3-chloro-4-fluorophenyl)carbamoyl)-7-fluoro-2,3-dihydro-1H-inden-1-yl) carbamate]	0.11

Same assay, conditions: Hepatitis B virus, HepDE19, 168 h, HepDE19 cells, inhibition of rcDNA formation, 7 day incubation, top concentration 25 μM; read-out: DE-19 bDNA EC50

SMILES	EC50 [µM]
O=C(N[C@H]1CCc2c(C(=O)Nc3ccc(F)c(Cl)c3)ccc(F)c21)OCc1cccc[n+]1[O-] [Compound 67, (S)-2-((((4-((3-Chloro-4-fluorophenyl)carbamoyl)-7-fluoro-2,3-dihydro-1H-inden-1-yl)carbamoyl)oxy)methyl)pyridine 1-oxide]	0.31
O=C(N[C@H]1CCc2c(C(=O)Nc3ccc(F)c(Cl)c3)ccc(F)c21)OCCC(F)(F)F [Compound 70, O-3,3,3-Trifluoropropyl, N—(S)-(4-((3-chloro-4-fluorophenyl)carbamoyl)-7-fluoro-2,3-dihydro-1H-inden-1-yl) carbamate]	0.29
Cn1ccc(COC(=O)N[C@H]2CCc3c(C(=O)Nc4ccc(F)c(Cl)c4)ccc(F)c32)n1 [Compound 71, O-(1-Methyl-1H-pyrazol-3-yl)methyl, N—(S)-(4-((3-chloro-4-fluorophenyl)carbamoyl)-7-fluoro-2,3-dihydro-1H-inden-1-yl) carbamate]	0.06
O=C1C[C@@H](OC(=O)N[C@H]2CCc3c(C(=O)Nc4ccc(F)c(Cl)c4)ccc(F)c32)CN1 [Compound 72, O—(R)-5-Oxopyrrolidin-3-yl, N—((S)-4-((3-chloro-4-fluorophenyl)carbamoyl)-7-fluoro-2,3-dihydro-1H-inden-1-yl) carbamate]	0.24
Cc1cccc(COC(=O)N[C@H]2CCc3c(C(=O)Nc4ccc(F)c(Cl)c4)ccc(F)c32)n1 [Compound 73, O-(6-Methylpyridin-2-yl)methyl, N—(S)-(4-((3-chloro-4-fluorophenyl)carbamoyl)-7-fluoro-2,3-dihydro-1H-inden-1-yl) carbamate]	0.25
O=C(NCc1ccccn1)O[C@H]1CCc2c(C(=O)Nc3ccc(F)c(Cl)c3)ccc(F)c21 [Compound 74, N—(S)-4-((3-Chloro-4-fluorophenyl)carbamoyl)-7-fluoro-2,3-dihydro-1H-inden-1-yl, O-(pyridin-2-ylmethyl) carbamate]	1.6
COCC(=O)N[C@H]1CCc2c(C(=O)Nc3ccc(F)c(Cl)c3)ccc(F)c21 [Compound 75, (S)—N-(3-Chloro-4-fluorophenyl)-7-fluoro-1-(2-methoxyacetamido)-2,3-dihydro-1H-indene-4-carboxamide]	1.4
CC(=O)N[C@H]1CCc2c(C(=O)Nc3ccc(F)c(Cl)c3)ccc(F)c21 [Compound 77, (S)-1-Acetamido-N-(3-chloro-4-fluorophenyl)-7-fluoro-2,3-dihydro-1H-indene-4-carboxamide]	0.2
O=C(Nc1ccc(F)c(Cl)c1)c1ccc(F)c2c1CC[C@@H]2O [Compound 81, (S)—N-(3-Chloro-4-fluorophenyl)-7-fluoro-1-hydroxy-2,3-dihydro-1H-indene-4-carboxamide]	0.67
O=C(N[C@H]1CCc2c(C(=O)Nc3ccc(F)c(Cl)c3)ccc(F)c21)OCC(F)F [Compound 84, O-2,2-Difluoroethyl, N—(S)-(4-((3-chloro-4-fluorophenyl)carbamoyl)-7-fluoro-2,3-dihydro-1H-inden-1-yl) carbamate]	0.17
O=C(N[C@H]1CCc2c(C(=O)Nc3ccc(F)c(Cl)c3)ccc(F)c21)OCc1ccncn1 [Compound 85, O-Pyrimidin-4-ylmethyl, N—(S)-(4-((3-chloro-4-fluorophenyl)carbamoyl)-7-fluoro-2,3-dihydro-1H-inden-1-yl) carbamate]	0.58
CNC(=O)O[C@H]1CCc2c(C(=O)Nc3ccc(F)c(Cl)c3)ccc(F)c21 [Compound 89, O—(S)-4-((3-Chloro-4-fluorophenyl)carbamoyl)-7-fluoro-2,3-dihydro-1H-inden-1-yl, N-methyl Carbamate]	0.56
O=C(OCc1ccccn1)O[C@H]1CCc2c(C(=O)Nc3ccc(F)c(Cl)c3)ccc(F)c21 [Compound 90, (S)-4-((3-Chloro-4-fluorophenyl)carbamoyl)-7-fluoro-2,3-dihydro-1H-inden-1-yl (pyridin-2-ylmethyl) carbonate]	1.9
O=C(N[C@H]1CCc2c(C(=O)Nc3ccc(F)c(Cl)c3)ccc(F)c21)OCc1cncs1 [Compound 91, O-Thiazol-5-ylmethyl, N—(S)-(4-((3-chloro-4-fluorophenyl)carbamoyl)-7-fluoro-2,3-dihydro-1H-inden-1-yl) carbamate]	0.07
O=C(N[C@H]1CCc2c(C(=O)Nc3ccc(F)c(Cl)c3)ccc(F)c21)OCc1nccs1 [Compound 92, O-Thiazol-2-ylmethyl, N—(S)-(4-((3-chloro-4-fluorophenyl)carbamoyl)-7-fluoro-2,3-dihydro-1H-inden-1-yl) carbamate]	0.18

Same assay, conditions: Hepatitis B virus, HepDE19, 168 h, read-out: DE-19 bDNA EC50 (μM), HepDE19 cells, inhibition of rcDNA formation, 7 day incubation, top concentration 25 μM

SMILES	EC50 [µM]
O=C(N[C@H]1CCc2c(C(=O)Nc3ccc(F)c(Cl)c3)ccc(F)c21)OCC1CCN(CC(F)(F)F)CC1 [Compound 62, O-(1-(2,2,2-Trifluoroethyl)piperidin-4-yl)methyl, N—(S)-(4-((3-chloro-4-fluorophenyl)carbamoyl)-7-fluoro-2,3-dihydro-1H-inden-1-yl) carbamate]	1.8
C[C@H](OC(=O)N[C@H]1CCc2c(C(=O)Nc3ccc(F)c(Cl)c3)ccc(F)c21)c1ccccn1 [Compound 68, O—(S)-1-(Pyridin-2-yl)ethyl, N—((S)-4-((3-chloro-4-fluorophenyl)carbamoyl)-7-fluoro-2,3-dihydro-1H-inden-1-yl) carbamate]	0.39
O=C(N[C@H]1CCc2c(C(=O)Nc3ccc(F)c(Cl)c3)ccc(F)c21)OC[C@@H]1CCCN1 [Compound 69, O—(S)-Pyrrolidin-2-ylmethyl, N—((S)-4-((3-chloro-4-fluorophenyl)carbamoyl)-7-fluoro-2,3-dihydro-1H-inden-1-yl) carbamate Hydrochloride]	5.1
O=C(N[C@H]1CCc2c(C(=O)Nc3ccc(F)c(Cl)c3)ccc(F)c21)OCc1cnccn1 [Compound 78, O-Pyrazin-2-ylmethyl, N—(S)-(4-((3-chloro-4-fluorophenyl)carbamoyl)-7-fluoro-2,3-dihydro-1H-inden-1-yl) carbamate]	0.09
O=C(N[C@H]1CCc2c(C(=O)Nc3ccc(F)c(Cl)c3)ccc(F)c21)OCc1ncccn1 [Compound 79, O-Pyrimidin-2-ylmethyl, N—(S)-(4-((3-chloro-4-fluorophenyl)carbamoyl)-7-fluoro-2,3-dihydro-1H-inden-1-yl) carbamate]	0.12
O=C(N[C@H]1CCc2c(C(=O)Nc3ccc(F)c(Cl)c3)ccc(F)c21)OCc1cc(Cl)ccn1 [Compound 80, O-(4-Chloropyridin-2-yl)methyl, N—(S)-(4-((3-chloro-4-fluorophenyl)carbamoyl)-7-fluoro-2,3-dihydro-1H-inden-1-yl) carbamate Hydrochloride]	0.33
O=C(N[C@H]1CCc2c(C(=O)Nc3ccc(F)c(Cl)c3)ccc(F)c21)OCc1ccon1 [Compound 82, O-Isoxazol-3-ylmethyl, N—(S)-(4-((3-chloro-4-fluorophenyl)carbamoyl)-7-fluoro-2,3-dihydro-1H-inden-1-yl) carbamate]	0.13
O=C(N[C@H]1CCc2c(C(=O)Nc3ccc(F)c(Cl)c3)ccc(F)c21)OCCc1ccccn1 [Compound 83, O-2-(Pyridin-2-yl)ethyl, N—(S)-(4-((3-chloro-4-fluorophenyl)carbamoyl)-7-fluoro-2,3-dihydro-1H-inden-1-yl) carbamate Hydrochloride]	0.18
O=C(N[C@H]1CCc2c(C(=O)Nc3ccc(F)c(Cl)c3)ccc(F)c21)OCCCN1CCCC1=O [Compound 86, O-3-(2-Oxopyrrolidin-1-yl)propyl, N—(S)-(4-((3-chloro-4-fluorophenyl)carbamoyl)-7-fluoro-2,3-dihydro-1H-inden-1-yl) carbamate]	0.43
Cc1cccn2cc(COC(=O)N[C@H]3CCc4c(C(=O)Nc5ccc(F)c(Cl)c5)ccc(F)c43)nc12 [Compound 87, O-(8-Methylimidazo[1,2-a]pyridin-2-yl)methyl, N—(S)-(4-((3-chloro-4-fluorophenyl)carbamoyl)-7-fluoro-2,3-dihydro-1H-inden-1-yl) carbamate Hydrochloride]	0.2
O=C(N[C@H]1CCc2c(C(=O)Nc3ccc(F)c(Cl)c3)ccc(F)c21)OCC(F)(F)F [Compound 88, O-2,2,2-Trifluoroethyl, N—(S)-(4-((3-chloro-4-fluorophenyl)carbamoyl)-7-fluoro-2,3-dihydro-1H-inden-1-yl) carbamate]	0.21
